Legend:
Assay in all cases: radiometric filter-binding kinase assay
[1] = target: MAP3K7 TAB1 (human) (UniProt Q15750+O43318); conditions: compound 1.0 µM
[2] = target: EPHA2 (human) (UniProt P29317)
[3] = target: PIM2 (human) (UniProt Q9P1W9)
[4] = system: ROCK2 (rat); conditions: accession and sequence are those of the human protein
[5] = target: ABL1 (human) (UniProt P00519); conditions: compound 1.0 µM
[6] = target: MARK3 (human) (UniProt P27448)
[7] = target: MAPK9 (human) (UniProt P45984)
[8] = target: STK3 (human) (UniProt Q13188)
[9] = target: CaMK1 (human) (UniProt Q14012)
[10] = target: PRKAA1 PRKAB2 PRKAG1 (human) (UniProt O43741+Q13131+P54619)
[11] = target: FGFR1 (human) (UniProt P11362)
[12] = target: MAPKAPK5 (human) (UniProt Q8IW41)
[13] = target: TAOK1 (human) (UniProt Q7L7X3); conditions: compound 1.0 µM
[14] = target: MAPK12 (human) (UniProt P53778)
[15] = target: TBK1 (human) (UniProt Q9UHD2)
[16] = target: TTK (human) (UniProt P33981); conditions: compound 1.0 µM
[17] = target: PLK1 (human) (UniProt P53350)
[18] = target: RPS6KA1 KD1 KD2 (human) (UniProt Q15418)
[19] = target: MAPK3 (human) (UniProt P27361)
[20] = target: MAPKAPK2 (human) (UniProt P49137)
[21] = target: MARK1 (human) (UniProt Q9P0L2); conditions: compound 1.0 µM
[22] = target: MYLK (human) (UniProt Q15746)
[23] = target: INSR (human) (UniProt P06213); conditions: compound 1.0 µM
[24] = target: GSK3B (human) (UniProt P49841)
[25] = target: MKNK1 (human) (UniProt Q9BUB5)
[26] = target: IRAK4 (human) (UniProt Q9NWZ3); conditions: compound 1.0 µM
[27] = target: NEK6 (human) (UniProt Q9HC98)
[28] = target: MINK1 (human) (UniProt Q8N4C8); conditions: compound 1.0 µM
[29] = target: INSRR (human) (UniProt P14616)
[30] = target: JAK2 JH1 JH2 (human) (UniProt O60674); conditions: compound 1.0 µM
[31] = target: AURKA (human) (UniProt O14965); conditions: compound 1.0 µM
[32] = target: MAPKAPK3 (human) (UniProt Q16644); conditions: compound 1.0 µM
[33] = target: CAMKK2 (human) (UniProt Q96RR4)
[34] = target: EPHB1 (human) (UniProt P54762); conditions: compound 1.0 µM
[35] = target: DYRK2 (human) (UniProt Q92630)
[36] = target: MAP2K1 (human) (UniProt Q02750)
[37] = target: EPHB2 (human) (UniProt P29323); conditions: compound 1.0 µM
[38] = target: HIPK3 (human) (UniProt Q9H422); conditions: compound 1.0 µM
[39] = target: MKNK2 (human) (UniProt Q9HBH9)
[40] = target: ERBB4 (human) (UniProt Q15303); conditions: compound 1.0 µM

Chain of MAPKAPK2 (human) (P49137 whole entry, looked up): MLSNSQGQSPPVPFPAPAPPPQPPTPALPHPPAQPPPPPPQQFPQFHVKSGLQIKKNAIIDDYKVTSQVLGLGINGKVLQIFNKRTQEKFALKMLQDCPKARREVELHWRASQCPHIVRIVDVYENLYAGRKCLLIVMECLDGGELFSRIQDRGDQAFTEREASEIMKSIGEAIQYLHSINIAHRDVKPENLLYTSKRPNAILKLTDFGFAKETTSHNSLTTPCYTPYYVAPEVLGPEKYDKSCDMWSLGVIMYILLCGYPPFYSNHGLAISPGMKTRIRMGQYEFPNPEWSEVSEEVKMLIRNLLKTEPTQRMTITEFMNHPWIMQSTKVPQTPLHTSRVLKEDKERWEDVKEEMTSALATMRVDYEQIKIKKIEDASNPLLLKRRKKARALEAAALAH
Chain of MKNK2 (human) (Q9HBH9 whole entry, looked up): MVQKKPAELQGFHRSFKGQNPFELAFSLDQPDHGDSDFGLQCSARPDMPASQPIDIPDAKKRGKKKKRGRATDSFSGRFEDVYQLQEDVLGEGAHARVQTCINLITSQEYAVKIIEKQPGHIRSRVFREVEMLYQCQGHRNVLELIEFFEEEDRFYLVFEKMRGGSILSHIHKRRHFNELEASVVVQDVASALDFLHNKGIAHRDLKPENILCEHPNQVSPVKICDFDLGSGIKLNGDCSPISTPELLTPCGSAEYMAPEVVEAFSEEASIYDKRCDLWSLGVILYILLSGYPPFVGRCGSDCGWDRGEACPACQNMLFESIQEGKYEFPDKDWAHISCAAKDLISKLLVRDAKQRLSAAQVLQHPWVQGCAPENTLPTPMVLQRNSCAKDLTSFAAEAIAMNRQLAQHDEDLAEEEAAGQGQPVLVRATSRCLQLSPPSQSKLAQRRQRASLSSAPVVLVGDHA
Chain of FGFR1 (human) (P11362 whole entry, looked up): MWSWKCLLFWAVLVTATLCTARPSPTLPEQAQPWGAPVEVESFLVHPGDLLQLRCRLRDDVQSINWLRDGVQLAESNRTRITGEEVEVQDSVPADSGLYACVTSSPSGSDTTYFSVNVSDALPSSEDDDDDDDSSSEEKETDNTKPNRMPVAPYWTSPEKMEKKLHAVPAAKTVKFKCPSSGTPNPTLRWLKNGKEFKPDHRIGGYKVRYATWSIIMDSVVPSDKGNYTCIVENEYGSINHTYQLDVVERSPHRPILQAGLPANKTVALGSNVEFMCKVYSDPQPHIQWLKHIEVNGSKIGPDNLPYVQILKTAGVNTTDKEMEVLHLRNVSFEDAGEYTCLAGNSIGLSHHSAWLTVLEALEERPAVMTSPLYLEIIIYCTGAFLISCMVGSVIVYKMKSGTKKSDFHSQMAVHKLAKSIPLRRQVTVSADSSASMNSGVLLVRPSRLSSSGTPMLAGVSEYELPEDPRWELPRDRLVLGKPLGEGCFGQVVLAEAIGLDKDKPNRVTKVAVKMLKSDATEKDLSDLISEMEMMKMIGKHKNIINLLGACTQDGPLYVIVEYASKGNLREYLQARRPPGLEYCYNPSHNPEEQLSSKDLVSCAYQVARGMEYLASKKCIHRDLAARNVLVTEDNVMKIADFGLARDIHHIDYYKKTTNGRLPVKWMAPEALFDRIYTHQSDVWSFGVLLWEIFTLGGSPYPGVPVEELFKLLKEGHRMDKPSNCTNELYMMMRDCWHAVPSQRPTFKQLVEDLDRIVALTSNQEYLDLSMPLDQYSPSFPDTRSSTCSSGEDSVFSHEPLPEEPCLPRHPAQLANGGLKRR
Chain of CaMK1 (human) (Q14012 whole entry, looked up): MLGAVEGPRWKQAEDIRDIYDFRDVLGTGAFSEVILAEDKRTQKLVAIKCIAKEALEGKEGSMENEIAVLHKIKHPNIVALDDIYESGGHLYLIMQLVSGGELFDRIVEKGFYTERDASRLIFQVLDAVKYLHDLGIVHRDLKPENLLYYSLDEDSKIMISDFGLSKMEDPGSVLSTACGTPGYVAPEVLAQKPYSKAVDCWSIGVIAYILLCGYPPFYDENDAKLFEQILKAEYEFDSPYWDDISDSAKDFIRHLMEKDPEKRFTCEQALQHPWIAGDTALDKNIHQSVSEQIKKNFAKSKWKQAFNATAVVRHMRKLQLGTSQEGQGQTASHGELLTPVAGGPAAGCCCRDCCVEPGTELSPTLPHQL
Chain of PRKAA1 PRKAB2 PRKAG1 (human) (O43741 whole entry, looked up): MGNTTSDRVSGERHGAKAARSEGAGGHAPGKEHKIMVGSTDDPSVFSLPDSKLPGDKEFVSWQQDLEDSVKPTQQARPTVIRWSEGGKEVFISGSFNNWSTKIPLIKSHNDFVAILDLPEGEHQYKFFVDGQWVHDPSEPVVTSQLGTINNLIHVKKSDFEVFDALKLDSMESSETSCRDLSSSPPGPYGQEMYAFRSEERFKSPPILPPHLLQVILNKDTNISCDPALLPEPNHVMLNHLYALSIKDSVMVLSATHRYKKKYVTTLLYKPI
Chain of PRKAA1 PRKAB2 PRKAG1 (human) (P54619 whole entry, looked up): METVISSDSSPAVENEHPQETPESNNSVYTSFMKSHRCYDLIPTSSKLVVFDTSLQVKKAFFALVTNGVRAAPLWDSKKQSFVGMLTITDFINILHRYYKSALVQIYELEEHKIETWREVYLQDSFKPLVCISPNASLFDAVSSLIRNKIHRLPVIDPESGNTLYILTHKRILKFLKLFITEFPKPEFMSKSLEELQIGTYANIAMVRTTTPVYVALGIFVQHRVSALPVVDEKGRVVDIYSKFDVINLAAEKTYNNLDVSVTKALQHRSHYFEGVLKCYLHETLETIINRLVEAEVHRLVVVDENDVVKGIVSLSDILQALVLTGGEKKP
Chain of PRKAA1 PRKAB2 PRKAG1 (human) (Q13131 whole entry, looked up): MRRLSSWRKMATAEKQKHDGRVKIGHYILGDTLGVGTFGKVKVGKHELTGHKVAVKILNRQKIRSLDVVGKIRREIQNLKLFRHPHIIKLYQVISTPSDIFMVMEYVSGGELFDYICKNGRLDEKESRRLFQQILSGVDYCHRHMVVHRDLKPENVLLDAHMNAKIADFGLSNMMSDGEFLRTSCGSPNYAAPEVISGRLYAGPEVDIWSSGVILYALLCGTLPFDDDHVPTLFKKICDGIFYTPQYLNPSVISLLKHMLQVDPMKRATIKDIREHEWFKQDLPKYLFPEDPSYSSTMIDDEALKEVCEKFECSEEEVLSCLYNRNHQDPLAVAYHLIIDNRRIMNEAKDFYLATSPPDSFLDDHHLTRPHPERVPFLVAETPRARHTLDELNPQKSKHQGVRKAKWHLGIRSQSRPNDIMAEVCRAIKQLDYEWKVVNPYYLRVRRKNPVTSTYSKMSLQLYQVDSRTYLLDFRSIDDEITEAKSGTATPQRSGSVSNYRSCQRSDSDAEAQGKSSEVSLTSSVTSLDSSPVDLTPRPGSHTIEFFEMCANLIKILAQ
Chain of NEK6 (human) (Q9HC98 whole entry, looked up): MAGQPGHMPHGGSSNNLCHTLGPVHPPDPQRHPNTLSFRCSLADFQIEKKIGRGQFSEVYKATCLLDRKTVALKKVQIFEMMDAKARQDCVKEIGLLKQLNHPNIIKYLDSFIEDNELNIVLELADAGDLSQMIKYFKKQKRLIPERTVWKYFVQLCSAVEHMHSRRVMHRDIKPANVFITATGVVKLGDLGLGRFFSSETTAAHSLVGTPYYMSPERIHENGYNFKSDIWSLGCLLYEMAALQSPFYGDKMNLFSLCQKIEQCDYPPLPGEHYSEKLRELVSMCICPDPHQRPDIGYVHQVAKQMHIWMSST
Chain of MAPKAPK5 (human) (Q8IW41 whole entry, looked up): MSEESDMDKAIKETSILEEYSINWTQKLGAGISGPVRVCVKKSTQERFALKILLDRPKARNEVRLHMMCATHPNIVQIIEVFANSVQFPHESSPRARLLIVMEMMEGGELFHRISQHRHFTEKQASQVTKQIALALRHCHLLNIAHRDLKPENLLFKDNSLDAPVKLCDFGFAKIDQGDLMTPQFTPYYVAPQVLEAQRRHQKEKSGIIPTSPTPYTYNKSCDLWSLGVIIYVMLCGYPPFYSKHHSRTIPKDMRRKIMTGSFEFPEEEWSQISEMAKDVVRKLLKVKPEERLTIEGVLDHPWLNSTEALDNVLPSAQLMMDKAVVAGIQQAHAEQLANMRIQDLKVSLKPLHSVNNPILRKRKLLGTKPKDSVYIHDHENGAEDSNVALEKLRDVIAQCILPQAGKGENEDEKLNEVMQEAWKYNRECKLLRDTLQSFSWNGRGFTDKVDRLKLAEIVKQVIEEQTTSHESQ
Chain of MARK3 (human) (P27448 whole entry, looked up): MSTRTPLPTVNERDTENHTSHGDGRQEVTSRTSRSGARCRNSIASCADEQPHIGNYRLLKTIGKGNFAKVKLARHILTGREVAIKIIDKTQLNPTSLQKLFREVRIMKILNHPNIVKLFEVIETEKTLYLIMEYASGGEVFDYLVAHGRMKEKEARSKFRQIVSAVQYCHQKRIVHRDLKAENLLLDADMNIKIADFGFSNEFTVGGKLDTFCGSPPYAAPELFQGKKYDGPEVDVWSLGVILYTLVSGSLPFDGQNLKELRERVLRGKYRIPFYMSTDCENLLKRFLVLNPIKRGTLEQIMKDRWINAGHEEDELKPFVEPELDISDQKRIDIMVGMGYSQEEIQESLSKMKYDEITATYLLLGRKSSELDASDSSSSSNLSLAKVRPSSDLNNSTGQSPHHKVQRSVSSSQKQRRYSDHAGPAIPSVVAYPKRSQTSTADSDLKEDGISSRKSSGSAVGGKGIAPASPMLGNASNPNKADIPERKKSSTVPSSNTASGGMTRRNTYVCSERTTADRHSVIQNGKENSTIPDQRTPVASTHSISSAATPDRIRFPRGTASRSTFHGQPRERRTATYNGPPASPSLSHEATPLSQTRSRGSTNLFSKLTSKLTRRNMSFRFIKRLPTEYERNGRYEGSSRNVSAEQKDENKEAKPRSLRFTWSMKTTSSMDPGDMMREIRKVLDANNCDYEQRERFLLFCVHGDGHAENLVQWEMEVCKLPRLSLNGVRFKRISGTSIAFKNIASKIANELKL

COc1ccc2c(c1)[nH]c1c(C)nccc12
residual activity [1]: 95%
residual activity ([2]; compound 1.0 µM): 87%
residual activity ([3]; compound 1.0 µM): 101%
residual activity ([4]; compound 1.0 µM): 102%
residual activity [5]: 111%
residual activity ([6]; compound 1.0 µM): 107%
residual activity ([7]; compound 1.0 µM): 84%
residual activity ([8]; compound 1.0 µM): 81%
residual activity ([9]; compound 1.0 µM): 88%
residual activity ([10]; compound 1.0 µM): 106%
residual activity ([11]; compound 1.0 µM): 103%
residual activity ([12]; compound 1.0 µM): 97%
residual activity [13]: 111%
residual activity ([14]; compound 1.0 µM): 67%
residual activity ([15]; compound 1.0 µM): 87%
residual activity [16]: 75%
residual activity ([17]; compound 1.0 µM): 96%
residual activity ([18]; compound 1.0 µM): 93%
residual activity ([19]; compound 1.0 µM): 102%
residual activity ([20]; compound 1.0 µM): 87%
residual activity [21]: 88%
residual activity ([22]; compound 1.0 µM): 106%
residual activity [23]: 100%
residual activity ([24]; compound 1.0 µM): 87%
residual activity ([25]; compound 1.0 µM): 81%
residual activity [26]: 59%
residual activity ([27]; compound 1.0 µM): 88%
residual activity [28]: 101%
residual activity ([29]; compound 1.0 µM): 23%
residual activity [30]: 92%
residual activity [31]: 93%
residual activity [32]: 105%
residual activity ([33]; compound 1.0 µM): 97%
residual activity [34]: 103%
residual activity ([35]; compound 1.0 µM): 35%
residual activity ([36]; compound 1.0 µM): 102%
residual activity [37]: 136%
residual activity [38]: 118%
residual activity ([39]; compound 1.0 µM): 84%
residual activity [40]: 92%

Oc1ccc2c(c1)C(O)c1cc(O)ccc1-2
residual activity ([2]; compound 20.0 µM): 86%
residual activity ([3]; compound 20.0 µM): 66%
residual activity ([4]; compound 20.0 µM): 78%
residual activity ([6]; compound 20.0 µM): 64%
residual activity ([7]; compound 20.0 µM): 99%
residual activity ([8]; compound 20.0 µM): 39%
residual activity ([9]; compound 20.0 µM): 25%
residual activity ([10]; compound 20.0 µM): 99%
residual activity ([11]; compound 20.0 µM): 62%
residual activity ([12]; compound 20.0 µM): 61%
residual activity ([14]; compound 20.0 µM): 85%
residual activity ([15]; compound 20.0 µM): 123%
residual activity ([17]; compound 20.0 µM): 66%
residual activity ([18]; compound 20.0 µM): 70%
residual activity ([19]; compound 20.0 µM): 100%
residual activity ([20]; compound 20.0 µM): 48%
residual activity ([22]; compound 20.0 µM): 77%
residual activity ([24]; compound 20.0 µM): 54%
residual activity ([25]; compound 20.0 µM): 71%
residual activity ([27]; compound 20.0 µM): 78%
residual activity ([29]; compound 20.0 µM): 47%
residual activity ([33]; compound 20.0 µM): 91%
residual activity ([35]; compound 20.0 µM): 69%
residual activity ([36]; compound 20.0 µM): 122%
residual activity ([39]; compound 20.0 µM): 65%

Oc1ccc2c(c1)oc1c3ccccc3c(O)cc21
residual activity [1]: 71%
residual activity ([2]; compound 1.0 µM): 84%
residual activity ([3]; compound 1.0 µM): 40%
residual activity ([4]; compound 1.0 µM): 92%
residual activity [5]: 83%
residual activity ([6]; compound 1.0 µM): 80%
residual activity ([7]; compound 1.0 µM): 102%
residual activity ([8]; compound 1.0 µM): 64%
residual activity ([9]; compound 1.0 µM): 72%
residual activity ([10]; compound 1.0 µM): 91%
residual activity ([11]; compound 1.0 µM): 77%
residual activity ([12]; compound 1.0 µM): 95%
residual activity [13]: 99%
residual activity ([14]; compound 1.0 µM): 82%
residual activity ([15]; compound 1.0 µM): 80%
residual activity [16]: 63%
residual activity ([17]; compound 1.0 µM): 104%
residual activity ([18]; compound 1.0 µM): 83%
residual activity ([19]; compound 1.0 µM): 86%
residual activity ([20]; compound 1.0 µM): 80%
residual activity [21]: 88%
residual activity ([22]; compound 1.0 µM): 46%
residual activity [23]: 98%
residual activity ([24]; compound 1.0 µM): 77%
residual activity ([25]; compound 1.0 µM): 66%
residual activity [26]: 75%
residual activity ([27]; compound 1.0 µM): 77%
residual activity [28]: 87%
residual activity ([29]; compound 1.0 µM): 24%
residual activity [30]: 117%
residual activity [31]: 103%
residual activity [32]: 84%
residual activity ([33]; compound 1.0 µM): 76%
residual activity [34]: 107%
residual activity ([35]; compound 1.0 µM): 5%
residual activity ([36]; compound 1.0 µM): 94%
residual activity [37]: 100%
residual activity [38]: 63%
residual activity ([39]; compound 1.0 µM): 55%
residual activity [40]: 77%
